Test results reported in US5202348A, “Thiarubrine antifungal agents” (The University of British Columbia, priority 1990, dated 1993).
Values after ≈ are worked out from the molar mass of the structure shown. Like-named read-outs stand apart in the source and are kept apart here.

Assays:
[1] = tested on: Aspergillus fumigatus; settings: concentrations comparable to those of amphotericin B; cited from earlier work
[2] = tested on: bacteriophage T4; settings: in UV-A only; cited from earlier work
[3] = tested on: E. coli; assay: Growth inhibition of E. coli during 24 hours exposure; format: cell-based, Escherichia coli; settings: Escherichia coli, 24 h, read-out: Minimal concentration causing 100% growth inhibition
[4] = tested on: Aspergillus fumigatus; assay: Sensitivity of Aspergillus fumigatus, agar diffusion method; format: cell-based; settings: read-out: Zone of Growth Inhibition
Source text: Results were obtained by agar diffusion method. Disc diameter - 6 mm. -* = no zone over disc diameter.

[5] = tested on: mouse cells; settings: cited from earlier work
[6] = tested on: E. coli; assay: Growth inhibition of E. coli during 24 hours exposure; format: cell-based, Escherichia coli; settings: Escherichia coli, 24 h, read-out: Minimal concentration causing 50% growth inhibition
Description: (§1) Doses inhibiting growth in 50% were estimated by plotting concentration o
(§2) a logarithmic scale and percent of growth inhibition for 24 hours exposur
(§3) on a probability scale.

[7] = tested on: Bacillus subtilis; settings: cited from earlier work
[8] = tested on: Coenorhabditis elogans; settings: cited from earlier work
[9] = tested on: P815 mastocytoma; assay: LC50 (24 hrs.), doses required to inhibit growth in 50%, different method; format: cell-based; settings: Mus musculus, P815, 24 h, read-out: LC50 (24 hrs.), dose required to inhibit growth in 50%
[10] = tested on: Aspergillus; assay: Anti-Aspergillus activity (summary); format: cell-based; settings: Table 14;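 further: Letter grades where Y means active and y means less active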
[11] = tested on: murine cytomegalovirus; settings: only in presence of UV-A radiation; cited from earlier work
[12] = Growth inhibition of L1210 during 24 hours exposure; format: cell-based, Mouse; settings: mouse, l1210 cells; Table 2; read-out: Toxicity Index, LC50 L1210 / C. albicans
Description: (§4) L1210 = Mouse lymphocytic leukemia
as §1, §2, §3

[13] = tested on: L1210; assay: as above; format: cell-based, Mouse; settings: Mus musculus, L1210, 24 h, read-out: Concentration causing 50% growth inhibition
Description: as §4, §1, §2, §3

[14] = tested on: WEHI-3; assay: Growth inhibition of WEHI-3 during 24 hours exposure; format: cell-based, Mouse; settings: Mus musculus, WEHI-3, 24 h, read-out: Concentration causing 50% growth inhibition
Description: (§5) WEHl3 = Mouse myelomonocyte
as §1, §2, §3

[15] = as above; format: cell-based, Mouse; settings: mouse, wehi-3 cells; Table 2; read-out: Toxicity Index, LC50 WEHI-3 / LC50 C. albicans
Description: as §5, §1, §2, §3

[16] = tested on: Sindbis virus; settings: only in presence of UV-A radiation; cited from earlier work
[17] = tested on: P815; assay: Growth inhibition of P815 mastocytoma during 24 hours exposure; format: cell-based, Mouse
Description: (§6) P815 = Mouse mastocytoma […]
as §2, §3

[18] = as above; format: cell-based, Mouse; settings: mouse, p815 cells
Description: as §6, §2, §3

[19] = tested on: Escherichia coli; settings: cited from earlier work
[20] = tested on: C. albicans; assay: Growth inhibition of C. albicans during 24 hours exposure; format: cell-based, Candida albicans; settings: Candida albicans, 24 h
Description: as §1, §2, §3

[21] = tested on: murine cytomegalovirus and Sindbis virus; settings: phototoxic activity; cited from earlier work
[22] = tested on: P. aeruginosa; assay: Growth inhibition of P. aeruginosa during 24 hours exposure; format: cell-based, Pseudomonas aeruginosa; settings: Pseudomonas aeruginosa, 24 h
Description: as §1, §2, §3

[23] = tested on: bacteria; assay: Anti-bacterial activity (summary); format: cell-based; settings: Table 14
[24] = tested on: Candida; assay: Anti-Candida activity (summary); format: cell-based; settings: Table 14;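 further: Letter grades where Y means active and y means less active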
[25] = tested on: Candida albicans; settings: concentrations comparable to those of amphotericin B; cited from earlier work
[26] = tested on: C. albicans; assay: LC50 (24 hrs.), doses required to inhibit growth in 50%, different method; format: cell-based, Candida albicans; settings: Candida albicans, 24 h, read-out: LC50 (24 hrs.), dose required to inhibit growth in 50%
Source text: Doses Required to Inhibit Growth of C. albicans
in 50% During 24 hrs. (ng/ml)

[27] = tested on: Hycobacteria sp.; settings: cited from earlier work
[28] = tested on: C. albicans; assay: Growth inhibition of C. albicans during 24 hours exposure; format: cell-based, Candida albicans; settings: Candida albicans, 24 h, read-out: Minimal concentration causing 100% growth inhibition
[29] = Growth inhibition of 3T3 during 24 hours exposure; format: cell-based, Mouse; settings: mouse, 3t3 cells; Table 2; read-out: Toxicity Index, LC50 3T3 / LC50 C. albicans
Description: (§7) 3T3 = Mouse fibroblasts
as §1, §2, §3

[30] = tested on: 3T3; assay: Growth inhibition of 3T3 during 24 hours exposure; format: cell-based, Mouse; settings: Mus musculus, NIH3T3, 24 h, read-out: Concentration causing 50% growth inhibition
Description: as §7, §1, §2, §3

[31] = tested on: bacteriophage M13; settings: cited from earlier work
[32] = read-out: Minimal concentration causing 50% growth inhibition

For `C=CC#CC#CC1=CC=C(C#CC)SS1` [Thiarubrine A, 3 - (1- -propynyl) 6 (5-hexen-3-yn-1-ynyl)1,2-dithiacyclohexa-3,5-diene], the Antifungal activity [1] is given as “strong antifungal activity”, the Effect on bacteriophage [2] is given as “slightly affected” and the MIC [3] is given as 0.625 µg/mL (≈ 2.74 µM). For the same compound, the zone of inhibition at 0.01 µg/disc [4] was 8 mm, the zone of inhibition at 0.1 µg/disc [4] was 19 mm and the zone of inhibition at 1 µg/disc [4] was 27 mm. For the same compound, the zone of inhibition at 10 µg/disc [4] was 27 mm, the “Sensitivity of mouse cells” value ([5]; in presence of UV-A) was “moderately sensitive” and the “Sensitivity of mouse cells” value ([5]; in the dark) was “somewhat less sensitive”. For the same compound, the IC50 [6] was 0.18 µg/mL (≈ 0.788 µM), the Cytotoxic activity [7] was “cytotoxic activity” and the Cytotoxic activity [8] was “cytotoxic activity”. For the same compound, the IC50 [9] was 0.081 µg/mL (≈ 0.355 µM), the Anti-Aspergillus [10] was “Y” and the Sensitivity of virus [11] was “extremely sensitive”. It also gave a selectivity ratio at 24 h [12] of 1, an IC50 [13] of 0.035 µg/mL (≈ 0.153 µM) and an IC50 [14] of 0.027 µg/mL (≈ 0.118 µM). The selectivity ratio at 24 h [15] was 1, the Sensitivity of virus [16] was “extremely sensitive” and the “Ratio of concentration needed to inhibit growth in 50%, P815 vs C. albicans” value ([17]; 50% growth inhibition, Table 4) was “the same”. The IC50 ([17]; Mus musculus, P815, 24 h, read-out: Concentration causing 50% growth inhibition) was 0.035 µg/mL (≈ 0.153 µM), the IC50 ([17]; Mus musculus, P815, 24 h, read-out: Minimal concentration causing 50% growth inhibition) was 0.035 µg/mL (≈ 0.153 µM) and the IC100 ([17]; Mus musculus, P815, 24 h, read-out: Minimal concentration causing 100% growth inhibition) was 0.625 µg/mL. For the same compound, the selectivity ratio at 24 h ([18]; 100% growth inhibition, Table 3, read-out: Ratio of minimal concentration causing 100% growth inhibition, P815 line vs C. albicans) was ~4, the selectivity ratio at 24 h ([18]; Table 2, read-out: Toxicity Index, LC50 P815 / LC50 C. albicans) was 1 and the Cytotoxic activity [19] was “cytotoxic activity”. The IC50 ([20]; read-out: Concentration causing 50% growth inhibition) was 0.028 µg/mL (≈ 0.123 µM), the IC50 [20, 32] was 0.028 µg/mL (≈ 0.123 µM) and the Order of potency [21] was “alpha-terthienyl thiarubrine-A > phenylheptatriyne > ACBP-thiophene > thiophene-A”. For the same compound, the IC50 [22, 32] was 0.68 µg/mL (≈ 2.98 µM), the MIC ([22]; read-out: Minimal concentration causing 100% growth inhibition) was 2.5 µg/mL (≈ 10.9 µM) and the Anti-bacterial [23] was “Y”. For the same compound, the Anti-Candida [24] was “Y”, the Antifungal activity [25] was “strong antifungal activity” and the IC50 [26] was 0.04 µg/mL (≈ 0.175 µM). For the same compound, the Cytotoxic activity [27] was “cytotoxic activity”, the MIC [28] was 0.16 µg/mL (≈ 0.701 µM) and the selectivity ratio at 24 h [29] was 12. The IC50 [30] was 0.45 µg/mL (≈ 1.97 µM) and the Effect on bacteriophage [31] was “completely unaffected”.
